Measured values published in publication PMC2794939 (Biochemistry, 2009).

Columns and labels:
[1] = target: T1, A/M2 wt channel (Influenza A virus, UniProt P0DOF5); format: cell-based
[2] = target: T1, A/M2 wt channel; conditions: cited from earlier work
[3] = system: wt influenza virus (A/Udorn/72); format: cell-based
[4] = target: T2, transmembrane domain of wt A/M2 protein (M2TM, residues 22–46) (Influenza A virus, UniProt P0DOF5); format: binding; conditions: pH 7.4
T2 sequence (P0DOF5 22-46 limits assumed): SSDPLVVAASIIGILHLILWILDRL

T1 sequence (P0DOF5 whole entry): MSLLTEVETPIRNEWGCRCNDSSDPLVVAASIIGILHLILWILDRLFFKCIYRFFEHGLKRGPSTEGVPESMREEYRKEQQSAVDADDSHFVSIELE

| SMILES | voltage dependence of inhibition [1] | reversal of inhibition in the time frame of 5 min ([1]; pH 8.5) | dissociation rate constant (κoff) [2] | concentrations at which plaque formation was inhibited [3] [µM] | % remaining activity after application of 100 μM compound [1] [%] | IC50 ([1]; pH 5.5) [µM] | reversibility of inhibition / washout rate ([1]; pH 8.5) | activity ([1]; read-out: AM2 channel activity after 100μM compound inhibition) [%] | second-order rate constant (κon) for association and inhibition [2] [M⁻¹ s⁻¹] | Kd [4] [µM] |
| --- | --- | --- | --- | --- | --- | --- | --- | --- | --- | --- |
| NC12CC3CC(CC(C3)C1)C2 [Amantadine, amantadine] | voltage-independence | about 10% | 10^−4 s^−1 |  |  |  |  |  |  |  |
| C1CCC2(CC1)CCN(C1=NCCN1)CC2 [BL-1743, 2-[3-azaspiro([5],[5])undecanol]-2-imidazoline] | voltage-independence |  | 10^−3 s^−1 | 50 to 100 | 25.3±1.3 | 45.3 ± 3.92 | essentially fully reversible | 25 | 720 | 194 |
| NC1CCC2(CCCCC2)CC1 [Compound 8, spiro[5.5]undecan-3-amine] | voltage-independence |  |  |  |  |  | not significantly different from that of amantadine |  |  |  |
